Test results published in the supplement of paper PMC10307832.

Experiments:
Experiment in all cases: relative viability (nuclei count vs DMSO), 5 days (fraction); higher = more cells survive
Elesclomol + Pemetrexed = compound: CN(NC(=O)CC(=O)NN(C)C(=S)c1ccccc1)C(=S)c1ccccc1 [Elesclomol] + Nc1nc2[nH]cc(CCc3ccc(C(=O)N[C@@H](CCC(=O)O)C(=O)O)cc3)c2c(=O)[nH]1 [Pemetrexed] (partner 0.2 µM)
Method in brief: (§1)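 Relative viability was taken as the ratio of nuclei in treated wells to nuclei in vehicle wells. Lung cancer cell lines in 1536-well plates received compounds by pin tool one day after seeding, either one drug alone or a fixed anchor-drug dose plus five library-drug doses (not always all listed) in √10 steps. Nuclei were counted on 4× images after 5 days of treatment, and values are medians of duplicate plates.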

Elesclomol + Palbociclib = compound: CN(NC(=O)CC(=O)NN(C)C(=S)c1ccccc1)C(=S)c1ccccc1 [Elesclomol] + CC(=O)c1c(C)c2cnc(Nc3ccc(N4CCNCC4)cn3)nc2n(C2CCCC2)c1=O [Palbociclib] (partner 0.5 µM)
Method in brief: as §1

Elesclomol + Bortezomib = compound: CN(NC(=O)CC(=O)NN(C)C(=S)c1ccccc1)C(=S)c1ccccc1 [Elesclomol] + CC(C)C[C@H](NC(=O)[C@H](Cc1ccccc1)NC(=O)c1cnccn1)B(O)O [Bortezomib] (partner 0.002 µM)
Method in brief: as §1

Elesclomol + Tozasertib = compound: CN(NC(=O)CC(=O)NN(C)C(=S)c1ccccc1)C(=S)c1ccccc1 [Elesclomol] + Cc1cc(Nc2cc(N3CCN(C)CC3)nc(Sc3ccc(NC(=O)C4CC4)cc3)n2)n[nH]1 [Tozasertib] (partner 0.1 µM)
Method in brief: as §1

Elesclomol + OSI-027 = compound: CN(NC(=O)CC(=O)NN(C)C(=S)c1ccccc1)C(=S)c1ccccc1 [Elesclomol] + COc1cccc2cc(-c3nc([C@H]4CC[C@H](C(=O)O)CC4)n4ncnc(N)c34)[nH]c12 [OSI-027] (partner 0.5 µM)
Method in brief: as §1

| Cell Line | relative viability (Elesclomol + Pemetrexed; first compound 0.003162 µM) | relative viability (Elesclomol + Pemetrexed; first compound 0.01 µM) | relative viability (Elesclomol + Pemetrexed; first compound 0.03162 µM) | relative viability (Elesclomol + Pemetrexed; first compound 0.1 µM) | relative viability (Elesclomol + Palbociclib; first compound 0.003162 µM) | relative viability (Elesclomol + Palbociclib; first compound 0.01 µM) | relative viability (Elesclomol + Palbociclib; first compound 0.03162 µM) | relative viability (Elesclomol + Palbociclib; first compound 0.1 µM) | relative viability (Elesclomol + Bortezomib; first compound 0.003162 µM) | relative viability (Elesclomol + Bortezomib; first compound 0.01 µM) | relative viability (Elesclomol + Bortezomib; first compound 0.03162 µM) | relative viability (Elesclomol + Bortezomib; first compound 0.1 µM) | relative viability (Elesclomol + Tozasertib; first compound 0.003162 µM) | relative viability (Elesclomol + Tozasertib; first compound 0.01 µM) | relative viability (Elesclomol + Tozasertib; first compound 0.03162 µM) | relative viability (Elesclomol + Tozasertib; first compound 0.1 µM) | relative viability (Elesclomol + OSI-027; first compound 0.003162 µM) | relative viability (Elesclomol + OSI-027; first compound 0.01 µM) | relative viability (Elesclomol + OSI-027; first compound 0.03162 µM) | relative viability (Elesclomol + OSI-027; first compound 0.1 µM) |
| --- | --- | --- | --- | --- | --- | --- | --- | --- | --- | --- | --- | --- | --- | --- | --- | --- | --- | --- | --- | --- |
| NCI-H647 | 0.172 | 0.158 | 0.139 | 0.0481 | 0.309 | 0.257 | 0.128 | 0.0311 | 0.924 | 0.773 | 0.589 | 0.0718 | 0.388 | 0.212 | 0.0671 | 0.0175 | 0.603 | 0.368 | 0.161 | 0.203 |
| A-427 | 0.937 | 0.707 | 0.201 | 0.186 | 0.498 | 0.455 | 0.211 | 0.178 | 0.956 | 0.908 | 0.99 | 0.483 | 0.226 | 0.186 | 0.149 | 0.0996 | 0.45 | 0.2 | 0.3 | 0.149 |
| LXF-289 | 0.894 | 0.971 | 0.867 | 0.552 | 0.627 | 0.561 | 0.548 | 0.36 | 0.997 | 0.998 | 0.968 | 0.673 | 0.193 | 0.17 | 0.188 | 0.174 | 0.82 | 0.328 | 0.803 | 0.589 |
| NCI-H1437 | 0.317 | 0.249 | 0.224 | 0.243 | 0.3 | 0.247 | 0.257 | 0.208 | 0.388 | 0.32 | 0.268 | 0.264 | 0.348 | 0.344 | 0.252 | 0.23 | 0.71 | 0.568 | 0.406 | 0.363 |
| RERF-LC-KJ | 0.412 | 0.369 | 0.332 | 0.268 | 0.911 | 0.714 | 0.581 | 0.288 | 0.943 | 0.536 | 0.322 | 0.276 | 0.264 | 0.239 | 0.208 | 0.116 | 0.406 | 0.372 | 0.242 | 0.188 |
| HCC-44 | 0.603 | 0.607 | 0.685 | 0.639 | 0.975 | 0.895 | 0.939 | 0.952 | 0.906 | 0.794 | 0.876 | 0.628 | 0.897 | 0.794 | 0.17 | 0.194 | 0.636 | 0.198 | 0.351 | 0.11 |
| EPLC-272H | 0.285 | 0.118 | 0.154 | 0.196 | 0.352 | 0.117 | 0.118 | 0.112 | 0.918 |  | 1.03 | 0.481 | 0.223 |  | 0.331 | 0.101 | 0.295 |  | 0.304 | 0.138 |
| NCI-H322M | 0.515 | 0.368 | 0.293 | 0.0948 | 0.387 | 0.381 | 0.331 | 0.246 | 1.17 |  | 1.25 | 1.15 | 0.335 | 0.275 | 0.186 | 0.122 | 0.565 | 0.328 | 0.268 | 0.116 |
